Test [1] has as its target T1, MAP kinase-activated protein kinase 5 (Homo sapiens, UniProt Q8IW41).
T1 sequence (Q8IW41 whole entry): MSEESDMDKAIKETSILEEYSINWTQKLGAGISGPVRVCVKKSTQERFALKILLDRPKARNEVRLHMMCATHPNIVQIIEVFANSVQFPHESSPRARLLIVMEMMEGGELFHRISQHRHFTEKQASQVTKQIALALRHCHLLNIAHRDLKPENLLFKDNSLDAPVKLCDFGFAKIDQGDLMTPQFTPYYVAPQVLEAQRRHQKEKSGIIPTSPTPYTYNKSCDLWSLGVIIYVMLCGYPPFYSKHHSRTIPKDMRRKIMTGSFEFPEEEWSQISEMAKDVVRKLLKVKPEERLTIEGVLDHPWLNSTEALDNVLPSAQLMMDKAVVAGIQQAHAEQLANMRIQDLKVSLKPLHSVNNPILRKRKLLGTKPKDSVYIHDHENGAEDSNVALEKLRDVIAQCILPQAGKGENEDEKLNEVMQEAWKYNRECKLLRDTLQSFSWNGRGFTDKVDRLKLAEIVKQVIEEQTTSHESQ

Test [2] concerns the target Serine/threonine-protein kinase PAK 2 (Homo sapiens, UniProt Q13177).
The next test concerns the target DNA topoisomerase 2-beta (Homo sapiens, UniProt Q02880).
Test [3] addresses Serine/threonine-protein kinase/endoribonuclease IRE2 (Homo sapiens, UniProt Q76MJ5).
In test [4] the target is T2, ATP-dependent RNA helicase DDX1 (Homo sapiens, UniProt Q92499).
T2 sequence (Q92499 whole entry): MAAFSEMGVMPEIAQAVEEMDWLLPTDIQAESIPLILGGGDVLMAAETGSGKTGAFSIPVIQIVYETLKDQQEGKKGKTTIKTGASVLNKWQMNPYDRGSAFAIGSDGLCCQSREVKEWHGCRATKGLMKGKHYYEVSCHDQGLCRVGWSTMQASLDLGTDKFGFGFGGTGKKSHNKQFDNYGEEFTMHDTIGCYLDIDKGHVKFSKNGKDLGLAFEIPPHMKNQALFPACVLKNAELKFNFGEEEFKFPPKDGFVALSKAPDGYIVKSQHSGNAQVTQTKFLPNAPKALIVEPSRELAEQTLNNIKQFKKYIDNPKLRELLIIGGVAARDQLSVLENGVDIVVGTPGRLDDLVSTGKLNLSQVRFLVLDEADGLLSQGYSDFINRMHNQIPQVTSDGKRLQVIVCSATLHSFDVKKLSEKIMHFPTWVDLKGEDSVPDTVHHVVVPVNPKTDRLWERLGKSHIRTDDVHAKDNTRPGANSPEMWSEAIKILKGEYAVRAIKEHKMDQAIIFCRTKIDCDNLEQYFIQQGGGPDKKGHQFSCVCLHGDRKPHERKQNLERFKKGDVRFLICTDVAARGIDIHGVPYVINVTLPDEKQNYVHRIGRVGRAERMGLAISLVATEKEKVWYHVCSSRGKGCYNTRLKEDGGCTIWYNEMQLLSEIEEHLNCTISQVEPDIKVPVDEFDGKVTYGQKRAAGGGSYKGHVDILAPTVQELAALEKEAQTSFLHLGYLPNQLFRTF

Test [5] addresses T3, Serine/threonine-protein kinase Nek9 (Homo sapiens, UniProt Q8TD19).
T3 sequence (Q8TD19 whole entry): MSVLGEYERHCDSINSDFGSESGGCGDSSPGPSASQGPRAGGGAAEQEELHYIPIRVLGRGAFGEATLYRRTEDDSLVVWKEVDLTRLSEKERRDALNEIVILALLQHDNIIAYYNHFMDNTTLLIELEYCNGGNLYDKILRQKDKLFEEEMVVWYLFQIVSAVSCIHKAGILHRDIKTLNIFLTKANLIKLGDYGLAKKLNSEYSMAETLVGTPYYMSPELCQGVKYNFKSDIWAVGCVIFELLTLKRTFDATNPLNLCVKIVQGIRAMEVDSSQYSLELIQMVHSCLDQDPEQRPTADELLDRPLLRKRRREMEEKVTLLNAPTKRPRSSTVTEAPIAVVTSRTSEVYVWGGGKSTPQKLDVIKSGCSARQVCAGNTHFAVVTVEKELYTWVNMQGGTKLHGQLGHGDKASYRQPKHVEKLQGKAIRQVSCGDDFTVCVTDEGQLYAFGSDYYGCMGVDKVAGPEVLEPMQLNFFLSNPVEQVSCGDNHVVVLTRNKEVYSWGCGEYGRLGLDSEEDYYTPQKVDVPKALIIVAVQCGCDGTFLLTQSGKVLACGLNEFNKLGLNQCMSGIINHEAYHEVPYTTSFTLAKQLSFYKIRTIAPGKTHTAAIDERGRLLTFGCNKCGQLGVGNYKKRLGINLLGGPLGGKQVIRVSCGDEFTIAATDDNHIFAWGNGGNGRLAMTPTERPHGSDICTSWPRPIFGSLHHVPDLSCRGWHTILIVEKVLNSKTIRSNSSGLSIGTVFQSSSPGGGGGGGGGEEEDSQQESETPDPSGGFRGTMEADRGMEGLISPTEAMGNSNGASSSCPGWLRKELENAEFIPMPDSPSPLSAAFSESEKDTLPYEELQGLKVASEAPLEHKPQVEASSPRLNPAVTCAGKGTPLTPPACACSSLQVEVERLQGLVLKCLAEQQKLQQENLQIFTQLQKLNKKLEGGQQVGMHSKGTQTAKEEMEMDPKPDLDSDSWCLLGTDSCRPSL

For test [6], the target named is Tyrosine-protein kinase SYK (Homo sapiens, UniProt P43405).
Test [7] has as its target T4, Delta(24)-sterol reductase (Homo sapiens, UniProt Q15392).
T4 sequence (Q15392 whole entry): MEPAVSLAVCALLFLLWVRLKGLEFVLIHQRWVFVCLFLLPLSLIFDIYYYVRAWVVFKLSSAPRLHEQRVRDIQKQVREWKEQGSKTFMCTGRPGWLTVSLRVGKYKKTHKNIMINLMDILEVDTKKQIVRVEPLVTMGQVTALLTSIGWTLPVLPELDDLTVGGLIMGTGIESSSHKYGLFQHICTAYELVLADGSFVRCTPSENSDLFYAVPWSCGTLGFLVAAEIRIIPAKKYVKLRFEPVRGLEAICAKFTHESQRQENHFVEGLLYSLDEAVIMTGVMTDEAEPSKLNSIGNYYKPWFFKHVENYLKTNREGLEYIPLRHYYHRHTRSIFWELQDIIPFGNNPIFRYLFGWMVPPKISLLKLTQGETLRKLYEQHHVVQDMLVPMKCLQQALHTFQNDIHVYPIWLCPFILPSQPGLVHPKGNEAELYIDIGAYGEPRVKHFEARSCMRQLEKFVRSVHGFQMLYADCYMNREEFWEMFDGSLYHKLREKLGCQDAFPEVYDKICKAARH

The target of the next test is Activated CDC42 kinase 1 (Homo sapiens, UniProt Q07912).
Activated CDC42 kinase 1, sequence (Q07912 whole entry): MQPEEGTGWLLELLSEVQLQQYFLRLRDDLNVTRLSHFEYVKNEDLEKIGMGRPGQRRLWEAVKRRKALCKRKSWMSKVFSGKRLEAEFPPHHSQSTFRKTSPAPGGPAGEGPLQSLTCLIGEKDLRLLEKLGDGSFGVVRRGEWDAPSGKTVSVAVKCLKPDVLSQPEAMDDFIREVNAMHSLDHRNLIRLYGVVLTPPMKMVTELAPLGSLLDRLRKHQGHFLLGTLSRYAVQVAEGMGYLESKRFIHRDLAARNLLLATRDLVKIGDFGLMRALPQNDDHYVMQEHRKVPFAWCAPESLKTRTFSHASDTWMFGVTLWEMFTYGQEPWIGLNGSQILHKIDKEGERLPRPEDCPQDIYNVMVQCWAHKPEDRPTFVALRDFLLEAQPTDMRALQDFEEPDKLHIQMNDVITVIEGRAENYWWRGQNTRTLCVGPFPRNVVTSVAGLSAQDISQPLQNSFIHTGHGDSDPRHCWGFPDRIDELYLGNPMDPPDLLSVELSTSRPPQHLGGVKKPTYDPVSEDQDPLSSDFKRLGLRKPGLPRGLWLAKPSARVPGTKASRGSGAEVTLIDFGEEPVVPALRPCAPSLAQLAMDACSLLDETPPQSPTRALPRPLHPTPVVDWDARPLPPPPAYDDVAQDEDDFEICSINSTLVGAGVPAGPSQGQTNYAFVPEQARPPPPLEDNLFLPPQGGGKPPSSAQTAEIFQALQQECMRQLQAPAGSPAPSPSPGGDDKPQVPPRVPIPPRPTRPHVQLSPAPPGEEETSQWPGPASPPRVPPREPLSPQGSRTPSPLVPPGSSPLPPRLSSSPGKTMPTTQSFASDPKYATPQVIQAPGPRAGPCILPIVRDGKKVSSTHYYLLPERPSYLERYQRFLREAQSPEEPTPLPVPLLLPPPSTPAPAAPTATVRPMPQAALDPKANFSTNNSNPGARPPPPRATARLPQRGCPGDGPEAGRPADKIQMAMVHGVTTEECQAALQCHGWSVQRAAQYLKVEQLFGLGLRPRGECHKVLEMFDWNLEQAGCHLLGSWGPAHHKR

SMILES strings stand for the structures. Calls of active or inactive are those of the source.

As usually defined, the Kd is the free concentration of one partner at which half of the binding sites on the other are occupied at equilibrium, for simple one-to-one binding.
Further: in the data inactive means no Kd found up to 30 µM.

Serine/threonine-protein kinase PAK 2, sequence (Q13177 whole entry): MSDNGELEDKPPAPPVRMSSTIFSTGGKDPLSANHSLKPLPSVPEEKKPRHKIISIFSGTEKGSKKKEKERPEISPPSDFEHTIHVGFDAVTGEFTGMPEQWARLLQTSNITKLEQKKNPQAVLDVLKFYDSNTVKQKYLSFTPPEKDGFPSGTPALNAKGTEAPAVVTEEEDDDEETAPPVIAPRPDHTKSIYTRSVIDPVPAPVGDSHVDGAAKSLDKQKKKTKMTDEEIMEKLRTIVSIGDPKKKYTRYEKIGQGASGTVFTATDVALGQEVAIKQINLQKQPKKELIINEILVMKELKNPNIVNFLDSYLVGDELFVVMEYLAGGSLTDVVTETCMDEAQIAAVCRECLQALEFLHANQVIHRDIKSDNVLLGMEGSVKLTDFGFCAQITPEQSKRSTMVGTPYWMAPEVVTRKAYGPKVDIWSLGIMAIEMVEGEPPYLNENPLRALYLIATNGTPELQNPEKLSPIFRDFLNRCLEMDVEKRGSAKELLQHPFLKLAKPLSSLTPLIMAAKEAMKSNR
DNA topoisomerase 2-beta, sequence (Q02880 whole entry): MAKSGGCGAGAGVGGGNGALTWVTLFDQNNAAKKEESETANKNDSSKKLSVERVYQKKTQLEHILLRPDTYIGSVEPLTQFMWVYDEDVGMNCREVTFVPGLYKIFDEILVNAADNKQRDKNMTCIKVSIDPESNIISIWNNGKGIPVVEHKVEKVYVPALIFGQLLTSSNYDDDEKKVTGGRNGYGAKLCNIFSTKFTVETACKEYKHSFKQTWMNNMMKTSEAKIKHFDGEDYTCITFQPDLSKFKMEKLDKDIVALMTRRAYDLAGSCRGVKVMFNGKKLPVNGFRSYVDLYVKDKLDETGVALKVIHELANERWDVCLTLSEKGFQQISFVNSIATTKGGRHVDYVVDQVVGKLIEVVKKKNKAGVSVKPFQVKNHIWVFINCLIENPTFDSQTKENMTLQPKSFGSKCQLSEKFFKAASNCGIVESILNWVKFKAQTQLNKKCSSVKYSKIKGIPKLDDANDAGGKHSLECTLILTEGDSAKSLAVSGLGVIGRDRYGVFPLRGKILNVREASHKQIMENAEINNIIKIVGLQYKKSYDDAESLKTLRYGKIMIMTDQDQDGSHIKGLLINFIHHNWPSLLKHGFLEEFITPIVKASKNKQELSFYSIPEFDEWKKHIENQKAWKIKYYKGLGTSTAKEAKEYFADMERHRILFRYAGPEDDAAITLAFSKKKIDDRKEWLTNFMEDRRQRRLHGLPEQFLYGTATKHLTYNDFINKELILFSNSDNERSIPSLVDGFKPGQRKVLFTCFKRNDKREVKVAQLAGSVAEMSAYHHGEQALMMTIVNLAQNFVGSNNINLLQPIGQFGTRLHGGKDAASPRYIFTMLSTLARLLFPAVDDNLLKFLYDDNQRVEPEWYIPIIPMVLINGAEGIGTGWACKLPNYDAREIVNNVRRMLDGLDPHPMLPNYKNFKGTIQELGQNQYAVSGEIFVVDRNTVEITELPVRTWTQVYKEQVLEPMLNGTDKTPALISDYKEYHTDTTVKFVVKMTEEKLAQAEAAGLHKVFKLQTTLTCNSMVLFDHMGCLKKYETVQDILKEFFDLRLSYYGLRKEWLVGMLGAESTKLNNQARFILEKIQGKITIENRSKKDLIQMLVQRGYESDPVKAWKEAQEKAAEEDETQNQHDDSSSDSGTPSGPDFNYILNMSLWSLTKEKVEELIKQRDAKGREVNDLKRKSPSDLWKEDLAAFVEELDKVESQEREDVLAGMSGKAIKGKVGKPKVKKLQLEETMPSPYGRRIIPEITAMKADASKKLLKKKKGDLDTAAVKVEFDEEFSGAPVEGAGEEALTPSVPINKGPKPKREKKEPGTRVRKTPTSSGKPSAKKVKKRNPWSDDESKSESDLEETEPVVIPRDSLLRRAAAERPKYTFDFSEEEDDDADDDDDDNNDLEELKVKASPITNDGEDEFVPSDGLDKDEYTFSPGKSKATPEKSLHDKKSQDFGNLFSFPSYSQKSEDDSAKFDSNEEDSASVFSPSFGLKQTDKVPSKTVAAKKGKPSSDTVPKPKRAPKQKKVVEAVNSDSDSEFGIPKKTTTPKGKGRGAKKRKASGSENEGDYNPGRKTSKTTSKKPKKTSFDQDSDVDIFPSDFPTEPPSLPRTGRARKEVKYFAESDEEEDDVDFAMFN
Serine/threonine-protein kinase/endoribonuclease IRE2, sequence (Q76MJ5 whole entry): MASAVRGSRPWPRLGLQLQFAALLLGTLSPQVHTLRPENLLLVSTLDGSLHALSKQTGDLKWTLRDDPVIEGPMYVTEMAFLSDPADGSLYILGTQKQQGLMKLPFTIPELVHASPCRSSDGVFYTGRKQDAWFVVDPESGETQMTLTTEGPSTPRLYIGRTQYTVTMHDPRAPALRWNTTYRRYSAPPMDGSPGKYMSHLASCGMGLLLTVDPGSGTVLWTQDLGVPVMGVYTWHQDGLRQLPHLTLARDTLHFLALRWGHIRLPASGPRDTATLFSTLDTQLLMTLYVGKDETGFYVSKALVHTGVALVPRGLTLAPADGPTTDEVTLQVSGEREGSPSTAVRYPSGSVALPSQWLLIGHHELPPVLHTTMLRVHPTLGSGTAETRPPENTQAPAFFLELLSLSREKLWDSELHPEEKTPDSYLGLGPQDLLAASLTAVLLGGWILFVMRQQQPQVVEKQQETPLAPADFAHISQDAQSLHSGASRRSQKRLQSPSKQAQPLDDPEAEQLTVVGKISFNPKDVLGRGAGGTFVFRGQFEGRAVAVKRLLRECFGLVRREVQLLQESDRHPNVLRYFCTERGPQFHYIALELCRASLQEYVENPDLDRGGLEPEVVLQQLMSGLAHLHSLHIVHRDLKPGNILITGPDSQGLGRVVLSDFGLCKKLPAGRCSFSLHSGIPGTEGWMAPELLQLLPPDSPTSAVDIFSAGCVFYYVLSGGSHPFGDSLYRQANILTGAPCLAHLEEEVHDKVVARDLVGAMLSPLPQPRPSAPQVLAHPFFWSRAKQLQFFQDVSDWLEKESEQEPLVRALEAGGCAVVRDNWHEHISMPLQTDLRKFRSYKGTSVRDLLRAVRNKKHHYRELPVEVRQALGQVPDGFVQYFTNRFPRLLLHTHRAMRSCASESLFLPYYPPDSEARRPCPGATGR

Regarding `COc1ccc(-c2ccc3c(N4CCOC[C@@H]4C)nc(N4CCOC[C@@H]4C)nc3n2)cc1CO` [AZD-8055], the Kd (in [1]; in test [2]; at DNA topoisomerase 2-beta; in test [3]; in test [4]; in test [5]) was > 30 µM (inactive) each time. In addition, the Kd (in test [6]; in test [7]; on Activated CDC42 kinase 1) was > 30 µM (inactive) throughout.
In the case of `O=C(O)[C@]1(Cc2cccc(Nc3nccs3)n2)CC[C@@H](Oc2cccc(Cl)c2F)CC1` [MK-5108], the Kd (in test [1]; in test [2]; on DNA topoisomerase 2-beta; in test [3]; in test [4]; in test [5]) was > 30 µM (inactive) each time. Moreover, the Kd was > 30 µM (inactive) in test [6], > 30 µM (inactive) in test [7] and 0.473 µM (active) at Activated CDC42 kinase 1.
As for `O=C1NC(=O)/C(=C/c2ccc3nccc(-c4ccncc4)c3c2)S1` [GSK-1059615], the Kd (in [1]; in [2]; at DNA topoisomerase 2-beta; in test [3]; in test [4]; in test [5]) was > 30 µM (inactive) in each case. In addition, the Kd (in test [6]; in [7]; on Activated CDC42 kinase 1) was > 30 µM (inactive) throughout.
As to `COc1cc(CCc2cc(NC(=O)c3ccc(N4C[C@@H](C)N[C@@H](C)C4)cc3)n[nH]2)cc(OC)c1` [AZD-4547], the Kd (in [1]; in test [2]; at DNA topoisomerase 2-beta; in test [3]; in test [4]; in [5]) was > 30 µM (inactive) in each case. Besides, the Kd in test [6] was > 30 µM (inactive); in [7], > 30 µM (inactive); at Activated CDC42 kinase 1, 0.148 µM.
On to `COc1cc2nccc(Oc3ccc(NC(=O)NC4CC4)c(Cl)c3)c2cc1C(N)=O` [LENVATINIB], for which the Kd (in test [1]; in test [2]; on DNA topoisomerase 2-beta; in test [3]; in [4]; in [5]) was > 30 µM (inactive) each time. Besides, the Kd (in [6]; in test [7]; on Activated CDC42 kinase 1) was > 30 µM (inactive) each time.
Regarding `CNC(=O)c1ccc(C)c(-n2c(C)cc(OCc3ccc(F)cc3F)c(Br)c2=O)c1` [PH-797804], the Kd (in test [1]; in test [2]; on DNA topoisomerase 2-beta; in [3]; in test [4]; in test [5]) was > 30 µM (inactive) in each case. Besides, the Kd (in test [6]; in [7]; on Activated CDC42 kinase 1) was > 30 µM (inactive) each time.
On to `N[C@@H]1CCCN(c2c(/C=C3\SC(=O)NC3=O)cccc2-c2ccccc2)C1`, for which the Kd (in test [1]; in test [2]; on DNA topoisomerase 2-beta; in test [3]; in [4]; in [5]) was > 30 µM (inactive) in each case. For the same molecule, the Kd (in test [6]; in test [7]; on Activated CDC42 kinase 1) was > 30 µM (inactive) each time.
`Cc1cc([C@@H](C)Nc2ccccc2C(=O)O)c2nc(N3CCOCC3)cc(=O)n2c1` [AZD-6482]: the Kd (in [1]; in test [2]; at DNA topoisomerase 2-beta; in [3]; in test [4]; in test [5]) was > 30 µM (inactive) in each case. The Kd (in [6]; in test [7]; at Activated CDC42 kinase 1) was > 30 µM (inactive) in each case.
For `CN1CCC(CNc2ccc3ncc(-c4cccc(OC(F)(F)F)c4)n3n2)CC1` [SGI-1776], the Kd (in test [1]; in test [2]; on DNA topoisomerase 2-beta; in test [3]; in test [4]; in [5]) was > 30 µM (inactive) in each case. The Kd (in [6]; in [7]; on Activated CDC42 kinase 1) was > 30 µM (inactive) throughout.
As for `CC(C)Nc1cc(-c2c[nH]c(C(=O)N[C@H](CO)c3cccc(Cl)c3)c2)c(Cl)cn1` [ULIXERTINIB], the Kd (in test [1]; in test [2]; on DNA topoisomerase 2-beta; in test [3]; in [4]; in test [5]) was > 30 µM (inactive) each time. Moreover, the Kd (in test [6]; in test [7]; at Activated CDC42 kinase 1) was > 30 µM (inactive) each time.
In the case of `O=c1sn(-c2cccc3ccccc23)c(=O)n1Cc1ccccc1` [TIDEGLUSIB], the Kd (in test [1]; in test [2]; on DNA topoisomerase 2-beta; in [3]; in test [4]; in test [5]) was > 30 µM (inactive) in each case. Also, the Kd (in test [6]; in [7]; at Activated CDC42 kinase 1) was > 30 µM (inactive) each time.

The record behind these values is ChEMBL document CHEMBL3991601, “The target landscape of clinical kinase drugs” (Science, 2017).
